For data set [1], the target named is T1, PamNTT1 (Candidatus Protochlamydia amoebophila, UniProt Q70GF7).
T1 construct: gene ntt1; full-length, N-terminal His tag (pET16b)
T1 sequence (Q70GF7 1-513): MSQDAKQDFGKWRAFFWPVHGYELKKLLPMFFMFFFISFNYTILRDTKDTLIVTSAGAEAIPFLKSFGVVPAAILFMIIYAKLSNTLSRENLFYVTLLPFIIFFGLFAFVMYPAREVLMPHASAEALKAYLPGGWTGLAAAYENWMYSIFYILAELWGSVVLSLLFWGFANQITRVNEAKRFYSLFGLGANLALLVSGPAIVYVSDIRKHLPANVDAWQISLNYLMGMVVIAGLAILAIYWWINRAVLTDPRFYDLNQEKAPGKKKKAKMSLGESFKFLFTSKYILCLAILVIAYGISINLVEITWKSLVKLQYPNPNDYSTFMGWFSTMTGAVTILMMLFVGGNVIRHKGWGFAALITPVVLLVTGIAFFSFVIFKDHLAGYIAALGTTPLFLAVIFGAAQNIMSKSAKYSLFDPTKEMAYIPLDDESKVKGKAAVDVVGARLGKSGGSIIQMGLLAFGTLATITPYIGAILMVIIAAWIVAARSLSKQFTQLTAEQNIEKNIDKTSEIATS
Nature of the data set: [α[…]]ADP uptake into proteoliposomes, anion exchange separation. The settings on record: apparent; ADP import in homo-exchange with 10 mM luminal ADP; pH 7.5; 30 °C; labelled compound. In kind it is biochemical.

Substrate in data set [2]: Nc1ncnc2c1ncn2[C@@H]1O[C@H](COP(=O)(O)OP(=O)(O)OP(=O)(O)O)[C@@H](O)[C@H]1O
Kind of data set: purified protein. Format: biochemical, Candidatus Protochlamydia amoebophila. To be noted: apparent, ATP import in exchange with 10 mM luminal ADP, pH 7.5, 30 °C, labelled compound.

As usually defined, the Km is the concentration of substrate that gives half-maximal velocity.

As to `Nc1ncnc2c1ncn2[C@@H]1O[C@H](COP(=O)(O)OP(=O)(O)O)[C@@H](O)[C@H]1O` [ADP], the “K M” value in data set [1] is “Approximately equivalent K M values were estimated for the ADPim/ADPex and ATPim/ATPex homo-exchange mode”.

B1: PamNTT1 (Candidatus Protochlamydia amoebophila UWE25) (protein)
chain: T1 sequence (Q70GF7 1-513)
notes: full-length, N-terminal His tag (pET16b)
In the case of B1, in data set [2], the Km turned out to be 17 µM.

These data come from PMC1951785, “Enlightening Energy Parasitism by Analysis of an ATP/ADP Transporter from Chlamydiae” (PLoS Biology, 2007).
